Results as given in US20260356819A1, “OXOISOINDOLINYL-SUBSTITUTED […] DERIVATIVE AND USE THEREOF” (GLUETACS THERAPEUTICS (SHANGHAI) CO., LTD., priority 2023, published 2026).

How the values were obtained:
Format in all cases: cell-based
Settings in all cases: compounds at 50 nM and 500 nM
[1] = biological target: T1, WEE1 (Homo sapiens, UniProt P30291+Q96SW2); test: Western blot degradation of WEE1 in hPBMCs (24 h)
T1 construct: The supernatant was aspirated as the extracted total cell protein; endogenous in cells; host or cells: human peripheral blood mononuclear cells (hPBMCs)
Method in brief: (§1)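 hPBMCs (1×10^6 cells/mL) exposed to compound at 50 nM and 500 nM for 24 h, DMSO as reference. Lysates run on SDS-PAGE and immunoblotted. Band grayscale normalized to internal control gives % protein remaining; DC50 from fitted concentration-response of band intensity versus DMSO.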

[2] = biological target: T2, IKZF1 (Homo sapiens, UniProt Q13422+Q96SW2); test: Western blot degradation of IKZF1 in hPBMCs (24 h)
T2 construct: The supernatant was aspirated as the extracted total cell protein; endogenous in cells; host or cells: human peripheral blood mononuclear cells (hPBMCs)
Method in brief: as §1

[3] = biological target: T3, IKZF2 (Homo sapiens, UniProt Q96SW2+Q9UKS7); test: Western blot degradation of IKZF2 in hPBMCs (24 h)
T3 construct: The supernatant was aspirated as the extracted total cell protein; endogenous in cells; host or cells: human peripheral blood mononuclear cells (hPBMCs)
Method in brief: as §1

[4] = biological target: T4, IKZF3 (Homo sapiens, UniProt Q96SW2+Q9UKT9); test: Western blot degradation of IKZF3 in hPBMCs (24 h)
T4 construct: The supernatant was aspirated as the extracted total cell protein; endogenous in cells; host or cells: human peripheral blood mononuclear cells (hPBMCs)
Method in brief: as §1

[5] = biological target: T5, CK1α (Homo sapiens, UniProt P48729+Q96SW2); test: Western blot degradation of CK1α in hPBMCs (24 h)
T5 construct: The supernatant was aspirated as the extracted total cell protein; endogenous in cells; host or cells: human peripheral blood mononuclear cells (hPBMCs)
Method in brief: as §1

[6] = biological target: T6, GSPT1 (Homo sapiens, UniProt P15170+Q96SW2); test: Western blot degradation of GSPT1 in hPBMCs (24 h)
T6 construct: The supernatant was aspirated as the extracted total cell protein; endogenous in cells; host or cells: human peripheral blood mononuclear cells (hPBMCs)
Method in brief: as §1

T2 sequence (Q13422 whole entry): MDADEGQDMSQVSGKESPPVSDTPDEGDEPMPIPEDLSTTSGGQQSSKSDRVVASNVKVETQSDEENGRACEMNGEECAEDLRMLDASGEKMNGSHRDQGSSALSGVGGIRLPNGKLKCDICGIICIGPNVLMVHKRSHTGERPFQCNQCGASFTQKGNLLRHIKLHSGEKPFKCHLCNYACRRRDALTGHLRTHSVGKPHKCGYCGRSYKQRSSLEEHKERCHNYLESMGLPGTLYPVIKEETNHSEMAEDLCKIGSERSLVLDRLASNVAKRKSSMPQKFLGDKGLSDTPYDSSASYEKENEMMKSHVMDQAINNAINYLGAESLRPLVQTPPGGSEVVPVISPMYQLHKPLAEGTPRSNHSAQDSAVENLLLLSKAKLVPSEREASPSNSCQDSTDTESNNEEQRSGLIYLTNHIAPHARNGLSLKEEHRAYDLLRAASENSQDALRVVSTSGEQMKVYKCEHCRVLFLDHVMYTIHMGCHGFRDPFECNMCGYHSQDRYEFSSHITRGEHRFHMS
T2 sequence (Q96SW2 whole entry): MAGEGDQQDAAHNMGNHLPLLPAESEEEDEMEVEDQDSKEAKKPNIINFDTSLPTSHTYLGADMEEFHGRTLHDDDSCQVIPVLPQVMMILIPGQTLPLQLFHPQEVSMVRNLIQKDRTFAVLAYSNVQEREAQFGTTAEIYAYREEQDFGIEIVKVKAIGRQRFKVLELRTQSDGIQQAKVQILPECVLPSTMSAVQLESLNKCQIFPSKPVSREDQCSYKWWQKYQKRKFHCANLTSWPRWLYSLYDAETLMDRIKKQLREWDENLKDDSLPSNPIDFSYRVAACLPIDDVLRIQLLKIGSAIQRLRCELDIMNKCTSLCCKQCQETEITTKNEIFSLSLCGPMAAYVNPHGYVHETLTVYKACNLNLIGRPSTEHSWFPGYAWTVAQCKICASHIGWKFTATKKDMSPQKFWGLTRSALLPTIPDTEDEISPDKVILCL
T2 sequence (Q16531 whole entry partner): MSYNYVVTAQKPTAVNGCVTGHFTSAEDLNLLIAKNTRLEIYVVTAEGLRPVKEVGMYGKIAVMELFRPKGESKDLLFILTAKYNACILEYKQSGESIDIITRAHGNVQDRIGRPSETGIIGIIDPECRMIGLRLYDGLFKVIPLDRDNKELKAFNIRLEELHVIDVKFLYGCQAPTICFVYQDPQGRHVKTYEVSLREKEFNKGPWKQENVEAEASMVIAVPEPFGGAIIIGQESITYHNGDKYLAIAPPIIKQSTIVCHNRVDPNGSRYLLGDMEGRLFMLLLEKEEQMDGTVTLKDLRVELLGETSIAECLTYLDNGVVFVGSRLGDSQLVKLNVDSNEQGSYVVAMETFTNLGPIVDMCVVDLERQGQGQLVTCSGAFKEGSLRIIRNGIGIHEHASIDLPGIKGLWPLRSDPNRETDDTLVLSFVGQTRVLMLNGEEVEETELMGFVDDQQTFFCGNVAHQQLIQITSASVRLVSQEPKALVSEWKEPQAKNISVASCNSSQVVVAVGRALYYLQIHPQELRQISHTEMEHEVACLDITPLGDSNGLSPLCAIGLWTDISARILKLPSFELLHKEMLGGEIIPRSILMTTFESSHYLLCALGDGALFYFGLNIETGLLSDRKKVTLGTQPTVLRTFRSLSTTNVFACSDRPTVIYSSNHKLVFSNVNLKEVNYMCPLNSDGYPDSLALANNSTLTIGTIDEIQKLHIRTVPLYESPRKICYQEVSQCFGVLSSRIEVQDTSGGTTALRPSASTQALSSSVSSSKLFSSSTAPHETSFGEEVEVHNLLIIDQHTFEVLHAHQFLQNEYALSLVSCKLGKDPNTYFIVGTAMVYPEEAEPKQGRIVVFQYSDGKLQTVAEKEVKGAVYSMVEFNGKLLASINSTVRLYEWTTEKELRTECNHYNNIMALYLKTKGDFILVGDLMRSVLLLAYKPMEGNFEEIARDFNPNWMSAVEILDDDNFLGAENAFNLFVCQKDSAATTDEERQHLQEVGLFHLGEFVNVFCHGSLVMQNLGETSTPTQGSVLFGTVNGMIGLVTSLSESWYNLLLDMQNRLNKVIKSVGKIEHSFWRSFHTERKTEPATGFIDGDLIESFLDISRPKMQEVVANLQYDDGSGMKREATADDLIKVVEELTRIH
T5 sequence (P48729 whole entry): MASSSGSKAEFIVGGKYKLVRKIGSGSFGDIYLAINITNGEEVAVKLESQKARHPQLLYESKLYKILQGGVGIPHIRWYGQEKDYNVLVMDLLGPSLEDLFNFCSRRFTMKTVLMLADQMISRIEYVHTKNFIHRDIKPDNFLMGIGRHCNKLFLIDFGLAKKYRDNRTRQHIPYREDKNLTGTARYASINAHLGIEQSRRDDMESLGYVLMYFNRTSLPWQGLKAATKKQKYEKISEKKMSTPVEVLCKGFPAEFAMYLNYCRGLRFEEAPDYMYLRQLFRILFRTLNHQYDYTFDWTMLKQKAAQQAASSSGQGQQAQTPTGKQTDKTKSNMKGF
T5 sequence (Q96SW2 whole entry): as the sequence (Q96SW2 whole entry) above
T5 sequence (Q16531 whole entry partner): as the sequence (Q16531 whole entry partner) above
T1 sequence (P30291 whole entry): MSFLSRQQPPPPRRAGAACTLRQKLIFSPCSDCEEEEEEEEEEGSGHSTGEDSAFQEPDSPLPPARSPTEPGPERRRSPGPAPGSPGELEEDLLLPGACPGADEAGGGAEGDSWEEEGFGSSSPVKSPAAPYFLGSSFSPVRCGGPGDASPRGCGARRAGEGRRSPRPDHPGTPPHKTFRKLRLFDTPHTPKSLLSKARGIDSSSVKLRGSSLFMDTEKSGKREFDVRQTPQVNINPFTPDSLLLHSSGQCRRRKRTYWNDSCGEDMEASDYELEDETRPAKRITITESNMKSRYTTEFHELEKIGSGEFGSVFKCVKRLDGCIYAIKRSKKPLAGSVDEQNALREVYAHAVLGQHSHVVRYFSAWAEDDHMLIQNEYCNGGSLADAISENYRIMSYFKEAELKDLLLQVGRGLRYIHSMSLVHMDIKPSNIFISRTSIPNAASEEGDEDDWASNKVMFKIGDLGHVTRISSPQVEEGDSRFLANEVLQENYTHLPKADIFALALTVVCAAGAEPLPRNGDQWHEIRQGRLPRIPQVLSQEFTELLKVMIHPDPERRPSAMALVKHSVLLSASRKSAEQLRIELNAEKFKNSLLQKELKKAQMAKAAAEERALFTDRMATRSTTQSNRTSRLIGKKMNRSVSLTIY
T1 sequence (Q96SW2 whole entry): as the sequence (Q96SW2 whole entry) above
T1 sequence (Q16531 whole entry partner): as the sequence (Q16531 whole entry partner) above
T4 sequence (Q9UKT9 whole entry): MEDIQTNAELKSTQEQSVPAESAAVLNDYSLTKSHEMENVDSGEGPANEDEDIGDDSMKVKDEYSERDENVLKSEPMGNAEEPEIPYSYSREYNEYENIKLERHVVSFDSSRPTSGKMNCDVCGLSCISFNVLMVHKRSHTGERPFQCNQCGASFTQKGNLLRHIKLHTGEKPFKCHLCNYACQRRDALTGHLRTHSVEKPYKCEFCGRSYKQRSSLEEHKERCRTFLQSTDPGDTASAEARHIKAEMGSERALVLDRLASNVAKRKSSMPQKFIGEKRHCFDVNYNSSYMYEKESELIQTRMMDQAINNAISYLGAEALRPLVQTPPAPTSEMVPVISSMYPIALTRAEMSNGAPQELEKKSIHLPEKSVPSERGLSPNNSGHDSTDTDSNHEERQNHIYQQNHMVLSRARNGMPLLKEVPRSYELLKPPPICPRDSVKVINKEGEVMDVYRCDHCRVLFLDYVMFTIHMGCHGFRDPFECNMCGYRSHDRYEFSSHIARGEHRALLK
T4 sequence (Q96SW2 whole entry): as the sequence (Q96SW2 whole entry) above
T4 sequence (Q16531 whole entry partner): as the sequence (Q16531 whole entry partner) above
T3 sequence (Q9UKS7 whole entry): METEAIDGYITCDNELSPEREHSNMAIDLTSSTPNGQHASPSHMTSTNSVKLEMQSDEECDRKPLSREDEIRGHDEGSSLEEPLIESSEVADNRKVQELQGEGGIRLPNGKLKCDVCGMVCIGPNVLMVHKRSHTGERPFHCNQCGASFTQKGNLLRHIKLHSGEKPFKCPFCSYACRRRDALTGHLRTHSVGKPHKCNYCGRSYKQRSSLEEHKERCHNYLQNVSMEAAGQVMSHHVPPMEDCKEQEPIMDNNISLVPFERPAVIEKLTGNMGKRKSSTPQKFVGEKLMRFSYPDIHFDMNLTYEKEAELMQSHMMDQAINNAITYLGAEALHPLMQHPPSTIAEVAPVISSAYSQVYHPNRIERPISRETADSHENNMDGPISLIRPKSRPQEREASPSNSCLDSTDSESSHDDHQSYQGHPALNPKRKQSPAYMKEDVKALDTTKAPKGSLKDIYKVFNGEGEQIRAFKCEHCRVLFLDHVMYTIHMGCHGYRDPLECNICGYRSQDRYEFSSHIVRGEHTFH
T3 sequence (Q96SW2 whole entry): as the sequence (Q96SW2 whole entry) above
T3 sequence (Q16531 whole entry partner): as the sequence (Q16531 whole entry partner) above

| SMILES | WEE1 substrate protein remaining % [1] | IKZF1 substrate protein remaining % [2] | IKZF2 substrate protein remaining % [3] | IKZF3 substrate protein remaining % [4] | CK1α substrate protein remaining % [5] | GSPT1 substrate protein remaining % [6] |
| --- | --- | --- | --- | --- | --- | --- |
| O=C1CCN(N2Cc3cc(CN4CCC(C5CCOc6cc(F)ccc65)CC4)ccc3C2=O)C(=O)N1 (stereo not drawn) [GT-07587, 1-(5-((4-(7-fluorochroman-4-yl)piperidin-1-yl)methyl)-1-oxoisoindolin-2-yl)dihydropyrimidine-2,4(1H,3H)-dione] | A (0% ≤ substrate protein remaining % ≤80%) | A (0% ≤ substrate protein remaining % ≤80%) | B (80%< substrate protein remaining % ≤100%) | B (80%< substrate protein remaining % ≤100%) | B (80%< substrate protein remaining % ≤100%) | A (0% ≤ substrate protein remaining % ≤80%) |
| O=C1CCN(N2C(=O)c3ccc(CN4CC=C(c5cccc(F)c5Cl)CC4)cc3C2=O)C(=O)N1 [GT-06896, 5-((4-(2-chloro-3-fluorophenyl)-3,6-dihydropyridin-1(2H)-yl)methyl)-2-(2,4-dioxotetrahydropyrimidin-1(2H)-yl)isoindoline-1,3-dione] | B (80%< substrate protein remaining % ≤100%) | A (0% ≤ substrate protein remaining % ≤80%) | B (80%< substrate protein remaining % ≤100%) | B (80%< substrate protein remaining % ≤100%) | B (80%< substrate protein remaining % ≤100%) | B (80%< substrate protein remaining % ≤100%) |
| O=C1CCN(N2C(=O)c3ccc(CN4CCN(c5ncc(Cl)cc5Cl)CC4)cc3C2=O)C(=O)N1 [GT-06969, 5-((4-(3,5-dichloropyridin-2-yl)piperazin-1-yl)methyl)-2-(2,4-dioxotetrahydropyrimidin-1(2H)-yl)isoindoline-1,3-dione] | A (0% ≤ substrate protein remaining % ≤80%) | B (80%< substrate protein remaining % ≤100%) | A (0% ≤ substrate protein remaining % ≤80%) | B (80%< substrate protein remaining % ≤100%) | B (80%< substrate protein remaining % ≤100%) | B (80%< substrate protein remaining % ≤100%) |
| O=C1CCN(N2C(=O)c3ccc(CN4CCN(c5ncnc6sc(Br)cc56)CC4)cc3C2=O)C(=O)N1 [GT-08096, 5-((4-(6-bromothieno[2,3-d]pyrimidin-4-yl)piperazin-1-yl)methyl)-2-(2,4-dioxotetrahydropyrimidin-1(2H)-yl)isoindoline-1,3-dione] | A (0% ≤ substrate protein remaining % ≤80%) | B (80%< substrate protein remaining % ≤100%) | B (80%< substrate protein remaining % ≤100%) | B (80%< substrate protein remaining % ≤100%) | A (0% ≤ substrate protein remaining % ≤80%) | A (0% ≤ substrate protein remaining % ≤80%) |
| O=C1CCN(N2C(=O)c3ccc(CN4CC=C(c5ccoc5)CC4)cc3C2=O)C(=O)N1 [GT-07442, 2-(2,4-dioxotetrahydropyrimidin-1(2H)-yl)-5-((4-(furan-3-yl)-3,6-dihydropyridin-1(2H)-yl)methyl)isoindoline-1,3-dione] | A (0% ≤ substrate protein remaining % ≤80%) | B (80%< substrate protein remaining % ≤100%) | B (80%< substrate protein remaining % ≤100%) | A (0% ≤ substrate protein remaining % ≤80%) | B (80%< substrate protein remaining % ≤100%) | A (0% ≤ substrate protein remaining % ≤80%) |
| O=C1CCN(N2C(=O)c3ccc(CN4CCN(c5ccncc5F)CC4)cc3C2=O)C(=O)N1 [GT-07164, 2-(2,4-dioxotetrahydropyrimidin-1(2H)-yl)-5-((4-(3-fluoropyridin-4-yl)piperazin-1-yl)methyl)isoindoline-1,3-dione] | B (80%< substrate protein remaining % ≤100%) | B (80%< substrate protein remaining % ≤100%) | A (0% ≤ substrate protein remaining % ≤80%) | B (80%< substrate protein remaining % ≤100%) | B (80%< substrate protein remaining % ≤100%) | A (0% ≤ substrate protein remaining % ≤80%) |
| Cc1nc(C2CCN(Cc3ccc4c(c3)C(=O)N(N3CCC(=O)NC3=O)C4=O)CC2)c2c3c(sc2n1)CCCC3 [GT-08111, 2-(2,4-dioxotetrahydropyrimidin-1(2H)-yl)-5-((4-(2-methyl-5,6,7,8-tetrahydrobenzo[4,5]thieno[2,3-d]pyrimidin-4-yl)piperidin-1-yl)methyl)isoindoline-1,3-dione] | B (80%< substrate protein remaining % ≤100%) | B (80%< substrate protein remaining % ≤100%) | B (80%< substrate protein remaining % ≤100%) | B (80%< substrate protein remaining % ≤100%) | A (0% ≤ substrate protein remaining % ≤80%) | A (0% ≤ substrate protein remaining % ≤80%) |
| O=C1CCN(N2C(=O)c3ccc(CN4CCC(n5c(=O)[nH]c6cc(F)ccc65)CC4)cc3C2=O)C(=O)N1 [GT-07583, 2-(2,4-dioxotetrahydropyrimidin-1(2H)-yl)-5-((4-(5-fluoro-2-oxo-2,3-dihydro-1H-benzo[d]imidazol-1-yl)piperidin-1-yl)methyl)isoindoline-1,3-dione] | A (0% ≤ substrate protein remaining % ≤80%) | B (80%< substrate protein remaining % ≤100%) | B (80%< substrate protein remaining % ≤100%) | B (80%< substrate protein remaining % ≤100%) | B (80%< substrate protein remaining % ≤100%) | A (0% ≤ substrate protein remaining % ≤80%) |
| O=C1CCN(N2Cc3cc(CN4CC(C5CCOc6cc(F)ccc65)C4)ccc3C2=O)C(=O)N1 (stereo not drawn) [GT-07690, 1-(5-((3-(7-fluorochroman-4-yl)azetidin-1-yl)methyl)-1-oxoisoindolin-2-yl)dihydropyrimidine-2,4(1H,3H)-dione] | B (80%< substrate protein remaining % ≤100%) | B (80%< substrate protein remaining % ≤100%) | A (0% ≤ substrate protein remaining % ≤80%) | B (80%< substrate protein remaining % ≤100%) | A (0% ≤ substrate protein remaining % ≤80%) | A (0% ≤ substrate protein remaining % ≤80%) |
| O=C1CCN(N2Cc3cc(CN4CCN(c5nc(Cl)nc6c5SCC6)CC4)ccc3C2=O)C(=O)N1 [GT-08439, 1-(5-((4-(2-chloro-6,7-dihydrothieno[3,2-d]pyrimidin-4-yl)piperazin-1-yl)methyl)-1-oxoisoindolin-2-yl)dihydropyrimidine-2,4(1H,3H)-dione] | A (0% ≤ substrate protein remaining % ≤80%) | A (0% ≤ substrate protein remaining % ≤80%) | B (80%< substrate protein remaining % ≤100%) | A (0% ≤ substrate protein remaining % ≤80%) | B (80%< substrate protein remaining % ≤100%) | A (0% ≤ substrate protein remaining % ≤80%) |
| O=C1CCN(N2Cc3cc(CN4CC=C(c5cncc(Cl)c5)CC4)ccc3C2=O)C(=O)N1 [GT-06394, 1-(5-((5-chloro-3′,6′-dihydro-[3,4′-bipyridin]-1′ (2′H)-yl)methyl)-1-oxoisoindolin-2-yl)dihydropyrimidine-2,4(1H,3H)-dione] | B (80%< substrate protein remaining % ≤100%) | B (80%< substrate protein remaining % ≤100%) | A (0% ≤ substrate protein remaining % ≤80%) | B (80%< substrate protein remaining % ≤100%) | A (0% ≤ substrate protein remaining % ≤80%) | A (0% ≤ substrate protein remaining % ≤80%) |
